From US10104891B2 (priority 2014, dated 2018)

How the values were obtained:
Type in all cases: in vivo
Phytophthora infestans = assay: whole plant or invertebrate; settings: Phytophthora infestans, in Solanum lycopersicum, 96 h, read-out: control value (Test 1)
[1] = tested on: Pseudoperonospora cubensis; assay: Test 2: control effect against cucumber downy mildew; settings: Pseudoperonospora cubensis, 120 h, control value vs untreated section
Procedure, shortened: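 Cucumber (Sagami hanjiro) at 2-leaf stage sprayed with 4 ppm compound from 10% wettable powder in Tween20 (1/5000); inoculated next day with P. cubensis zoospores, 1.0×10^4 units/ml, 16 hr moist chamber at 22° C. Lesion area rate scored 5 days post-inoculation; control value = (1 − treated/untreated onset area rate)×100.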

Plasmopara viticola = assay: Test 3: control effect against grape downy mildew; settings: Plasmopara viticola, 120 h, control value vs untreated section
Procedure, shortened: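 Neomuscat grape seedlings were sprayed with compound at 4 ppm, diluted from a 10% wettable powder in Tween20 solution. One day later they were inoculated with Plasmopara viticola zoospores at 1.0×10^4 units/ml and held moist at 22° C. for 16 hr. Control value was derived from leaf lesion area at 5 days versus untreated leaves.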

Pythium graminicola = assay: Test 4: control effect against rice damping-off by the Pythium fungus (soil lavage); settings: 1,000 ppm, 2.5 ml test suspension drenched on contaminated soil, rice (koshihikari)
Protocol: A 10% wettable powder created according to the Pharmaceutical Formulation Example 1 was diluted with a Tween20 solution prepared to a concentration of 1/5000, then the compound of formula [1] was prepared to a concentration of 4 ppm. Further, the compound of formula [1] in Test 4 was adjusted to a concentration of 1,000 ppm.
<Test 4 Test of Control Effect Against Rice Damping-Off by the Pythium Fungus (Soil Lavage)>
Distilled water was added to the flora of Pythium graminicola cultured in bentoglass seed culture and stirred with a mixer, and adjusted the contaminated soil to 5 g of bacteria against 1 kg of soil.
In a cell tray having 31×31 mm^2 per cell, 20 ml of the contaminated soil was filled in each cell, and 3 seeds of rice chaff that has been forced to sprout (Species: koshihikari) were seeded, and 5 ml of soil was added for covering, then 2.5 ml of test suspension was drenched, and the seeds were incubated in a moist chamber adjusted to 28° C. for 72 hr to induce sprouting. Then, in a low temperature room of 5° C., the onset of disease was induced for 2 days, then the disease was nurtured for 14 days in a room of 25° C.
The soil was washed, and the apoptosis strain, growth restrained strain, and a healthy strain were measured and the onset rate was calculated by the following formula. Onset rate=[Σ(onset strain number by level×onset index)/(investigated strain×3)]×100 [Onset Index]
1: Growth restrained strain
Also, the following formula was used to compute the control value from the obtained onset index. control value={1−onset area rate at the section applied the test agent/onset area rate of untreated section}×100 Computational formula of the control value: […]

SMILES	pest or weed control at 4 µg/mL (Phytophthora infestans)	pest or weed control at 4 µg/mL [1]	pest or weed control at 4 µg/mL (Plasmopara viticola)	pest or weed control at 1000 ppm (Pythium graminicola)
CS(=O)(=O)Oc1ccc(F)c2c1COC(c1csc(C3CCN(C(=O)Cn4nc(C(F)F)cc4C(F)F)CC3)n1)OC2 (stereo not drawn) [Compound 1-62, 4-[4-(6-fluoro-9-methylsulfonyloxy-1,5-dihydro-3H-2,4-benzodioxepin-3-yl)-2-thiazolyl]-1-[2-[3,5-bis(difluoromethyl)-1H-pyrazole-1-yl]acetyl]piperidine]	100%	100%	100%	≥ 90%
Cc1cc(C(F)(F)F)nn1CC(=O)N1CCC(c2nc(C3OCc4cccc(CCl)c4CO3)cs2)CC1 (stereo not drawn) [Compound 1-69, 4-[4-[6-(chloromethyl)-1,5-dihydro-3H-2,4-benzodioxepin-3-yl]-2-thiazolyl]-1-[2-[5-methyl-3-(trifluoromethyl)-1H-pyrazole-1-yl]acetyl]piperidine]	100%	60%	100%	≥ 90%
Cc1cc(C(F)(F)F)nn1CC(=O)N1CCC(c2nc(C3OCc4cccc(C=O)c4CO3)cs2)CC1 (stereo not drawn) [Compound 1-70, 4-[4-(6-formyl-1,5-dihydro-3H-2,4-benzodioxepin-3-yl)-2-thiazolyl]-1-[2-[5-methyl-3-(trifluoromethyl)-1H-pyrazole-1-yl]acetyl]piperidine]	100%	60%	100%	≥ 90%
Cc1cc(C(F)(F)F)nn1CC(=O)N1CCC(c2nc(C3OCc4cccc(CC#N)c4CO3)cs2)CC1 (stereo not drawn) [Compound 1-72, 4-[4-[6-(cyanomethyl)-1,5-dihydro-3H-2,4-benzodioxepin-3-yl]-2-thiazolyl]-1-[2-[5-methyl-3-(trifluoromethyl)-1H-pyrazole-1-yl]acetyl]piperidine]	100%	100%	100%	≥ 90%
CC(C)(C)c1ccc2c(c1)COC(c1csc(C3CCN(C(=O)Cn4nc(C(F)F)cc4C(F)F)CC3)n1)OC2 (stereo not drawn) [Compound 1-78, 4-[4-(7-tert-butyl-1,5-dihydro-3H-2,4-benzodioxepin-3-yl)-2-thiazolyl]-1-[2-[3,5-bis(difluoromethyl)-1H-pyrazole-1-yl]acetyl]piperidine]	100%	100%	100%	≥ 90%
Cc1cc(C(F)(F)F)nn1CC(=O)N1CCC(c2nc(C3OCc4ccc(C(C)(C)C)cc4CO3)cs2)CC1 (stereo not drawn) [Compound 1-79, 4-[4-(7-tert-butyl-1,5-dihydro-3H-2,4-benzodioxepin-3-yl)-2-thiazolyl]-1-[2-[5-methyl-3-(trifluoromethyl)-1H-pyrazole-1-yl]acetyl]piperidine]	100%	90%	90%	≥ 90%
O=C(Cn1nc(C(F)(F)F)cc1C(F)(F)F)N1CCC(c2nc(C3OCc4c(F)c(F)c(F)c(F)c4CO3)cs2)CC1 [Compound 1-84, 4-[4-(6,7,8,9-tetrafluoro-1,5-dihydro-3H-2,4-benzodioxepin-3-yl)-2-thiazolyl]-1-[2-[3,5-bis(trifluoromethyl)-1H-pyrazole-1-yl]acetyl]piperidine]	100%	100%	100%	≥ 90%
Cc1cc(C(F)(F)F)nn1CC(=O)N1CCC(c2nc(C3OCc4cccc(OS(=O)(=O)N(C)C)c4CO3)cs2)CC1 (stereo not drawn) [Compound 1-90, 4-[4-[6-(dimethylaminosulfonyloxy)-1,5-dihydro-3H-2,4-benzodioxepin-3-yl]-2-thiazolyl]-1-[2-[5-methyl-3-(trifluoromethyl)-1H-pyrazole-1-yl]acetyl]piperidine]	100%	100%	100%	≥ 90%
O=C(Cn1nc(C(F)(F)F)cc1C(F)(F)F)N1CCC(c2nc(C3OCc4ccc(F)cc4CO3)cs2)CC1 (stereo not drawn) [Compound 1-91, 4-[4-(7-fluoro-1,5-dihydro-3H-2,4-benzodioxepin-3-yl)-2-thiazolyl]-1-[2-[3,5-bis(trifluoromethyl)-1H-pyrazole-1-yl]acetyl]piperidine]	100%	100%	100%	≥ 90%
O=C(Cn1nc(C(F)(F)F)cc1C(F)(F)F)N1CCC(c2nc(C3OCc4ccc([N+](=O)[O-])cc4CO3)cs2)CC1 (stereo not drawn) [Compound 1-95, 4-[4-(7-nitro-1,5-dihydro-3H-2,4-benzodioxepin-3-yl)-2-thiazolyl]-1-[2-[3,5-bis(trifluoromethyl)-1H-pyrazole-1-yl]acetyl]piperidine]	100%	100%	100%	≥ 90%
Cc1cc(C(F)(F)F)nn1CC(=O)N1CCC(c2nc(C3OCc4cccc(C=NO)c4CO3)cs2)CC1 (stereo not drawn) [Compound 1-96, 4-[4-[6-(hydroxyimino)methyl-1,5-dihydro-3H-2,4-benzodioxepin-3-yl]-2-thiazolyl]-1-[2-[5-methyl-3-(trifluoromethyl)-1H-pyrazole-1-yl]acetyl]piperidine]	100%	100%	100%	≥ 90%
Cc1cc(C(F)(F)F)nn1CC(=O)N1CCC(c2nc(C3OCc4cccc(C(F)F)c4CO3)cs2)CC1 (stereo not drawn) [Compound 1-97, 4-[4-[6-(difluoromethyl)-1,5-dihydro-3H-2,4-benzodioxepin-3-yl]-2-thiazolyl]-1-[2-[5-methyl-3-(trifluoromethyl)-1H-pyrazole-1-yl]acetyl]piperidine]	100%	100%	100%	≥ 90%
Cc1cc(C(F)(F)F)nn1CC(=O)N1CCC(c2nc(C3OCc4c(Br)ccc(Br)c4CO3)cs2)CC1 [Compound 1-100, 4-[4-(6,9-dibromo-1,5-dihydro-3H-2,4-benzodioxepin-3-yl)-2-thiazolyl]-1-[2-[5-methyl-3-(trifluoromethyl)-1H-pyrazole-1-yl]acetyl]piperidine]	100%	100%	100%	≥ 90%
O=C(Cn1nc(C(F)F)cc1C(F)F)N1CCC(c2nc(C3OCc4cccc(Br)c4CO3)cs2)CC1 (stereo not drawn) [Compound 1-113, 4-[4-(6-bromo-1,5-dihydro-3H-2,4-benzodioxepin-3-yl)-2-thiazolyl]-1-[2-[3,5-bis(difluoromethyl)-1H-pyrazole-1-yl]acetyl]piperidine]	100%	100%	100%	≥ 90%
COc1ccc(F)c2c1COC(c1csc(C3CCN(C(=O)Cn4nc(C(F)(F)F)cc4C)CC3)n1)OC2 (stereo not drawn) [Compound 1-133, 4-[4-(6-fluoro-9-methoxy-1,5-dihydro-3H-2,4-benzodioxepin-3-yl)-2-thiazolyl]-1-[2-[5-methyl-3-(trifluoromethyl)-1H-pyrazole-1-yl]acetyl]piperidine]	100%	100%	100%	≥ 90%
